In brackets after ≈: the same amount, converted by molar mass.
Assays:
[1] = tested on: Lewis lung carcinoma; test: Growth inhibition test on Lewis lung carcinoma; format: in vivo, mice (BDF1 (C57BL/6×DBA/2)); settings: Mus musculus, po, 480 h, orally, once a day for 8 days, tumor weight on 20th day, read-out: G.I. (growth inhibition); for inhibition in vivo at 40 mg/kg: 40 mg/kg daily; for inhibition in vivo at 60 mg/kg: 60 mg/kg daily
Method: The treated group to which the compound of the present invention was administered consisted of seven mice, while the control group consisted of ten mice. Six weeks old male mice [BDF1 (C57BL/6×DBA/2), 25±2 g of body weight] were employed as host animals.
Tumor cells (5×10^5) of Lewis lung carcinoma were transplanted subcutaneously in inguinal region of each mouse. The treatment began one day after the transplantation and the prescribed dose of each test compound was administered orally to the mice once a day for 8 days.
On the 20th day after the transplantation, the tumors of all the mice were excised and weighed. Antitumor activity of the test compound was evaluated by the rate of growth inhibition (G.I.%) which was calculated with the following formula. [formula] T: mean tumor weight of treated mice C: mean tumor weight of control mice

[2] = tested on: B-16 melanoma; test: Growth inhibition test on B-16 melanoma; format: in vivo, mice (BDF1 (C57BL/6×DBA/2)); settings: Mus musculus, B16, po, 480 h, orally, once a day for 8 days, tumor weight on 20th day, read-out: G.I. (growth inhibition); for inhibition in vivo at 40 mg/kg: 40 mg/kg daily; for inhibition in vivo at 60 mg/kg: 60 mg/kg daily; for inhibition in vivo at 20 mg/kg: 20 mg/kg daily
Method: The treated group to which the compound of the present invention was administered consisted of seven mice, while the control group consisted of ten mice. Six weeks old male mice [BDF1 (C57BL/6×DBA/2), 25+2 g of body weight] were employed as host animals.
Tumor cells (5×10^5) of B-16 melanoma were transplanted subcutaneously in inguinal region of each mouse. The treatment began one day after the transplantation and the prescribed dose of each test compound was administered orally to the mice once a day for 8 days.
On the 20th day after the transplantation, the tumors of all the mice were excised and weighed. Antitumor activity of the test compound was evaluated by the rate of growth inhibition (G.I.%) which was calculated in the same manner as used in the animal test on Lewis lung carcinoma.

[3] = tested on: Colon adenocarcinoma No. 38; test: Growth inhibition test on Colon adenocarcinoma No. 38; format: in vivo, mice (BDF1); settings: orally, once a day for 8 days, tumor weight on 30th day
Method: The treated group to which the compound of the present invention was administered consisted of seven mice, while the control group consisted of ten mice. Six weeks old male mice [BDF1 (G57BL/6×DBA/2), 25±2 g of body weight] were employed as hosts animals.
Tumor cells (40 mg of fragment) of Colon adenocarcinoma No. 38 were transplanted subcutaneously in inguinal region of each mouse. The treatment began one day after the transplantation and the prescribed dose of each test compound was administered orally to the mice once a day for 8 days.
On the 30th day after the transplantaion, the tumors of all the mice were excised and weighed. Antitumor activity of the test compound was evaluated by the rate of growth inhibition (G.I.%) which was calculated in the same manner as used in the animal test on Lewis lung carcinoma.

[4] = Animal test on acute toxicity; settings: mouse, in vivo, ip; intraperitoneal, male ddY mice, observed 14 days, Litchfield-Wilcoxon method
Method: The test group to which the compound of the present invention was administered consisted of ten mice. Five weeks old male mice (ddY, 23±2 g of body weight) were employed as test animals.

[5] = tested on: Hepatoma 22; test: Growth inhibition test on Hepatoma 22; format: in vivo, mice (K-M); settings: 25 mg/kg daily, orally, once a day for 9 days; tumor weight on 12th day
Method: The treated group to which the compound of the present invention was administered consisted of ten mice, while the control group consisted of twenty mice. Four weeks old female mice (K-M, 20±2 g of body weight) were employed as host animals.
Tumor cells (a 2 mm^3 fragment) of Hepatoma 22 were transplanted subcutaneously in the flank of each mouse. The treatment began one day after the transplantation and the prescribed dose of the test compound was administered orally to the mice once a day for 9 days.
(§1) On the 12th day after the transplantation, the tumors of all the mice were excised and weighed. Antitumor activity of the test compound was evaluated by the rate of growth inhibition (G.I.%) which was calculated in the same manner as used in the animal test on Lewis lung carcinoma.

[6] = Animal test on subacute toxicity; settings: mouse, in vivo, ip; intraperitoneal, once a day for 8 days, female K-M mice, observed 14 days, Bliss-Finney method
Method: The test group to which the compound of the present invention was administered consisted of ten mice, while the control group consisted of ten mice. Four weeks old female mice (K-M, 20±2 g of body weight) were employed as test animals.
LD50 value of the subacute toxicity was determined by the Bliss-Finney statistical method.

[7] = tested on: Sarcoma 37; test: Growth inhibition test on Sarcoma 37; format: in vivo, mice (K-M); settings: once a day for 10 days; for G.I. (growth inhibition): tumor weight on 12th day; for ED50: Mus musculus, 288 h
Method: The treated group to which the compound of the present invention was administered consisted of eight mice, while the control group consisted of sixteen mice. Four weeks old female mice (K-M, 20±2 g of body weight) were employed as host animals.
Tumor cells (0.2 ml of 1:5 suspension) of Sarcoma 37 were transplanted subcutaneously in the flank of each mouse. The treatment began one day after the transplantation and the prescribed dose (1.56-50 mg/kg) of dl-1,2-bis(4-morpholinomethyl-3,5-dioxopiperazin-1-yl)-propane was administered intraperitoneally (i.p.) or orally (p.o.) to the mice once a day for 10 days.
as §1

[8] = Solubility in water; format: physicochemical; settings: 25° C.

With CC(CN1CC(=O)N(CN2CCOCC2)C(=O)C1)N1CC(=O)NC(=O)C1 (racemic) [dl-1-(4-Morpholinomethyl-3,5-dioxopiperazin-1-yl)-2-(3,5-dioxopiperazin-1-yl)-propane] the inhibition in vivo at 40 mg/kg [1] was 83.9%, the inhibition in vivo at 40 mg/kg [2] was 76.1% and the “G.I. (growth inhibition)” value ([3]; 40 mg/kg daily) was 74.1%.

CC(CN1CC(=O)N(CN2CCSCC2)C(=O)C1)N1CC(=O)N(CN2CCSCC2)C(=O)C1 (racemic) [dl-1,2-Bis(4-thiomorpholinomethyl-3,5-dioxopiperazin-1-yl)-propane] showed an inhibition in vivo at 40 mg/kg [2] of 77.5% and an LD50 at 336 h [4] of 330 mg/kg.

CC1CC(C)CN(CN2C(=O)CN(CC(C)N3CC(=O)N(CN4CC(C)CC(C)C4)C(=O)C3)CC2=O)C1 (racemic) [dl-1,2-Bis[4-(3,5-dimethylpiperidinomethyl)-3,5-dioxopiperazin-1-yl]-propan] gave an inhibition in vivo at 60 mg/kg [1] of 77.4% and an inhibition in vivo at 60 mg/kg [2] of 91.2%.

With CC1CC(C)CN(CN2C(=O)CN(CCN3CC(=O)N(CN4CC(C)CC(C)C4)C(=O)C3)CC2=O)C1 (centres unmarked) [1,2-Bis[4-(3,5-dimethylpiperidinomethyl)-3,5-dioxopiperazin-1-yl]-ethane] the inhibition in vivo at 60 mg/kg [1] was 67.2%, the inhibition in vivo at 60 mg/kg [2] was 68.9% and the “G.I. (growth inhibition)” value ([3]; 60 mg/kg daily) was 83.1%. It also gave an LD50 at 336 h [4] of 400 to 500 mg/kg.

For CC(CN1CC(=O)N(CN2CCN(c3ccccc3)CC2)C(=O)C1)N1CC(=O)NC(=O)C1 (racemic) [dl-1-[4-(N-Phenylpiperazinomethyl)-3,5-dioxopiperazin-1-yl]-2-(3,5-dioxopiperazin-1-yl)-propane], the inhibition in vivo at 40 mg/kg [1] was 76.2%, the inhibition in vivo at 20 mg/kg [2] was 60.8% and the “G.I. (growth inhibition)” value ([3]; 40 mg/kg daily) was 93.5%. For the same compound, the LD50 at 336 h [4] was over 350 mg/kg.

For CC(CN1CC(=O)N(CN2CCN(c3ccccc3)CC2)C(=O)C1)N1CC(=O)N(CN2CCN(c3ccccc3)CC2)C(=O)C1 (racemic) [dl-1,2-Bis[4-(N-phenylpiperazinomethyl)-3,5-dioxopiperazin-1-yl]-propane], the inhibition in vivo at 40 mg/kg [1] was 89%, the inhibition in vivo at 20 mg/kg [2] was 71% and the LD50 at 336 h [4] was 100 mg/kg.

In the case of O=C1CN(CCN2CC(=O)N(CN3CCOCC3)C(=O)C2)CC(=O)N1CN1CCOCC1 [1,2-bis(4-morpholinomethyl-3,5-dioxopiperazin-1-yl)-ethane, reference compound], the inhibition in vivo at 60 mg/kg [1] is reported as 22.6%, the inhibition in vivo at 60 mg/kg [2] is reported as 48.9% and the “G.I. (growth inhibition)” value ([3]; 60 mg/kg daily) is reported as 72.8%. For the same compound, the “G.I. (growth inhibition)” value [5] was 12.9%, the LD50 at 336 h [4] was 280 mg/kg and the LD50 at 336 h [6] was 59.3 mg/kg.

O=C1CN(CCN2CC(=O)N(CN3CCSCC3)C(=O)C2)CC(=O)N1CN1CCSCC1 [1,2-Bis(4-thiomorpholinomethyl-3,5-dioxopiperazin-1-yl)-ethane] gave an inhibition in vivo at 60 mg/kg [2] of 73.5%.

With CC(CN1CC(=O)N(CN2CCOCC2)C(=O)C1)N1CC(=O)N(CN2CCOCC2)C(=O)C1 (racemic) [dl-1,2-Bis(4-morpholinomethyl-3,5-dioxopiperazin-1-yl)-propane] the inhibition in vivo at 60 mg/kg [1] was 89.3%, the inhibition in vivo at 60 mg/kg [2] was 93.8% and the “G.I. (growth inhibition)” value ([3]; 60 mg/kg daily) was 91.6%. The “G.I. (growth inhibition)” value ([7]; 1.56 mg/kg daily, i.p.) was 33.2%, the “G.I. (growth inhibition)” value ([7]; 3.12 mg/kg daily, i.p.) was 56.1% and the “G.I. (growth inhibition)” value ([7]; 3.12 mg/kg daily, p.o.) was 39.3%. For the same compound, the “G.I. (growth inhibition)” value ([7]; 6.25 mg/kg daily, i.p.) was 72.7%, the “G.I. (growth inhibition)” value ([7]; 6.25 mg/kg daily, p.o.) was 68.8% and the “G.I. (growth inhibition)” value ([7]; 12.5 mg/kg daily, i.p.) was 82.4%. For the same compound, the “G.I. (growth inhibition)” value ([7]; 12.5 mg/kg daily, p.o.) was 94.2%, the “G.I. (growth inhibition)” value ([7]; 25 mg/kg daily, i.p.) was 94.6% and the “G.I. (growth inhibition)” value ([7]; 25 mg/kg daily, p.o.) was 100%. The “G.I. (growth inhibition)” value ([7]; 50 mg/kg daily, i.p.) was 100%, the ED50 ([7]; ip) was 3.1 mg/kg and the ED50 ([7]; po) was 4.3 mg/kg. For the same compound, the “G.I. (growth inhibition)” value [5] was 42.7%, the LD50 at 336 h [4] was 255 mg/kg and the LD50 at 336 h [6] was 178 mg/kg. The solubility [8] was 20 mg/mL (≈ 42.9 mM).

For O=C1CN(CCN2CC(=O)N(CN3CCN(c4ccccc4)CC3)C(=O)C2)CC(=O)N1CN1CCN(c2ccccc2)CC1 [1,2-Bis[4-(N-phenylpiperazinomethyl)-3,5-dioxopiperazin-1-yl]-ethane], the inhibition in vivo at 60 mg/kg [1] was 78.9%, the inhibition in vivo at 60 mg/kg [2] was 91.9% and the “G.I. (growth inhibition)” value ([3]; 60 mg/kg daily) was 97.9%. It also gave an LD50 at 336 h [4] of 200 to 300 mg/kg.

In the case of CC(CN1CC(=O)N(CN2CCN(C)CC2)C(=O)C1)N1CC(=O)N(CN2CCN(C)CC2)C(=O)C1 (racemic) [dl-1,2-Bis[4-(N-methylpiperazinomethyl)-3,5-dioxopiperazin-1-yl]-propane], the inhibition in vivo at 60 mg/kg [1] is reported as 53.5% and the LD50 at 336 h [4] is reported as 300 to 400 mg/kg.

— US4737497A, “Bis-dioxopiperazine derivatives, antitumor agents comprising them and compositions containing them” (Zenyaki Kogyo Kabushiki Kaisha, priority 1983, dated 1988)
